Reference: patent publication US7462592B2, “Compositions and methods for polynucleotide delivery” (Novartis Vaccines and Diagnostics, Inc., priority 1996, dated 2008)

Tests used:
HT1080 and 293 cells = test: Effect of chloroquine on transfection (FIG. 9); type: cell-based, human; details: presence or absence of chloroquine
Protocol: FIG. 9 illustrates the effect of chloroquine on transfection with RZ145-1 in (A) 293 cells and (B) HT1080 cells. The cells were transfected in the presence (black bar) or absence (stippled bar) of 100 uM chloroquine. Cells were lysed 48 hours post transfection and luciferase activity and total protein content were measured.
To determine whether chloroquine affected transfection mediated by polycationic agents of the present invention, HT1080 and 293 cells were transfected using RZ145-1 in the presence and absence of chloroquine. As a control, the same cell lines were transfected with polylysine both in the presence and absence of chloroquine. […] In contrast, polylysine-mediated transfection in the absence of chloroquine was 100-fold lower than polylysine mediated transfection in the presence of chloroquine.

[1] = Coulter N4MD submicron analyzer; Lee et al., 1996; cited from earlier work

In the case of polylysine [reference compound], the “transfection in the absence of chloroquine relative to presence of chloroquine, fold lower” value (HT1080 and 293 cells) is given as 100 fold and the “mean diameter of particles of condensed polynucleotide” value [1] is given as 50-200 nm.
